What was measured:
femoral fracture callus = assay: Murine stabilized femoral fracture, microCT analysis of fracture callus; assay type: in vivo, mice; conditions: for fracture callus densities / bone volume: 3 nmol/kg/day subcutaneous, 14, 28 or 56 days, FIG. 7
liver and kidneys = assay: Blind histopathology of liver and kidney after 28 days of treatment; conditions: 31 nmol/kg/day subcutaneous
Protocol: Referring now to Table 1, mice were treated with 31 nmol/kg/day subcutaneous injections of PTHrPD10 (“Targeted Drug”) or saline. Swiss ND4 mice were treated for 28 days. Mice were sacrificed at the end of the study and liver and kidneys were excised. Organs were fixed in formalin and paraffin sections were made from each. A veterinary pathologist performed a randomized blind analysis on the organs.

MC3T3E1 cells = assay: Gene expression ratio of bone markers in MC3T3E1 cells; assay type: cell-based
Protocol: (§1) Referring now to FIG. 4, alkaline phosphatase (ALP) expression ratio for both targeted and non-targeted PTHrP were analyzed in MC3T3E1 cells. The ALP ratio is calculated by (Treated ALP expression/Vehicle control ALP expression). Higher expression levels are associated with greater osteoblast activity and is a key protein involved in bone mineralization.
as §1, with “5, osteopontin (OPN)” for “4, alkaline phosphatase (ALP)”, “OPN” for “ALP”
Referring now to FIG. 6, gene expression ratio of several key bone markers for both targeted and non-targeted PTHrP were analyzed in MC3T3E1 cells. Activity markers include alkaline phosphatase (ALP), Collagen I-alpha (Col1-alpha), osteocalcin (OC), osteoprotegerin (OPG), osteopontin (OPN, and Osterix (OSX). The gene expression ratio is calculated by (Treated gene expression/Vehicle control gene expression). The targeted PTHrP has activity as low as 1 pM.

PTHR1 = target: T1, PTHR1 (Homo sapiens, UniProt Q03431); conditions: time-course washout assay; cited from earlier work
T1 sequence (Q03431 27-593): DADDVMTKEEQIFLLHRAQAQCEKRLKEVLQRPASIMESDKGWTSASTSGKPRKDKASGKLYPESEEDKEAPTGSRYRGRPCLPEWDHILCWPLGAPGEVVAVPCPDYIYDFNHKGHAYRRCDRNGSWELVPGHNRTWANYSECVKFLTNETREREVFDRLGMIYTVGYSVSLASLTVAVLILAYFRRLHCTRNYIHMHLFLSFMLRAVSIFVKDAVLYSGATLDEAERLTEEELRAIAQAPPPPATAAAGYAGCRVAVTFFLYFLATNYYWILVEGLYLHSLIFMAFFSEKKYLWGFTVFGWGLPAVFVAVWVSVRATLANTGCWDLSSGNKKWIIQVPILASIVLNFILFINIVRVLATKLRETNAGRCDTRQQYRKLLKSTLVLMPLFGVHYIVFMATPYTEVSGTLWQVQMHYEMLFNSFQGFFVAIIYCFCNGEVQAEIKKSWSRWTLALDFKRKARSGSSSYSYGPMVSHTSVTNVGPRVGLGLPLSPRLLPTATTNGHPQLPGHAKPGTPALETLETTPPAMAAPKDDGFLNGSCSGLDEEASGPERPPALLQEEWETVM

PTHR1 (R^0 conformation) = target: T2, PTHR1 (R^0 conformation) (Homo sapiens, UniProt Q03431); conditions: direct comparative studies; cited from earlier work
T2 sequence (Q03431 27-593): T1 sequence (Q03431 27-593)

For “SVSEIQLMHNLGKHLNSMERVEWLRKKLQDVHNFVALGAPLAPRDADDDDDDDDDD (PTH1-46D10) [PTH 1-46D10]”, the “bone density (microCT)” value (femoral fracture callus; 2 weeks, fracture callus, vs saline, FIG. 3) was “statistically denser than saline controls”.
For “VSEHQLLHDKGKSIQDLRRRFFLHHLIAEIHTAGIRATSEVSPNSDDDDDDDDDD [PTHrP1-46D10]”, the “toxicity, overall pathologist assessment of liver and kidney” value (liver and kidneys) was “No detectable toxicity was observed”, the “concentration at which gene expression activity is seen (activity as low as)” value (MC3T3E1 cells; ALP, Col1-alpha, OC, OPG, OPN, OSX, FIG. 6) was no more than 1 pM and the “osteopontin (OPN) expression ratio” value (MC3T3E1 cells; treated/vehicle control, FIG. 5) was “does not reduce the efficacy of the drug”. For the same sequence, the “alkaline phosphatase (ALP) expression ratio” value (MC3T3E1 cells; treated/vehicle control, standardized to GAPDH, FIG. 4) was “does not reduce the efficacy of the drug”, the “fracture callus densities / bone volume” value (femoral fracture callus; listed as targeted PTHrP) was “Greater densities can be observed in the targeted PTHrP over the free PTHrp at every time point” and the “fracture callus densities / bone volume” value (femoral fracture callus; listed as targeted drug) was “not only improves fracture healing but that it also accelerates fracture healing”. For the same sequence, the “bone densities around fractures (microCT)” value (femoral fracture callus; 31 nmol/kg/day, daily for 4 weeks, closed femoral fracture, FIG. 1) was “increased bone densities around fractures significantly higher than that of free PTHrP and Saline” and the “trabecular spacing (microCT)” value (femoral fracture callus; 4 weeks, fracture callus, vs saline, FIG. 2) was “statistically tighter spacing than does the saline control”.
In the case of “SVSEIQLMHNLGKHLNSMERVEWLRKKLQDVHNF [PTH(1-34)]”, the “duration of the cAMP response” value (PTHR1) is given as “more prolonged response than PTHrP(1-36)” and the “affinity for the R^0 state” value (PTHR1 (R^0 conformation)) is given as “much higher affinity for R^0 than PTHrP(1-36)”.

Source: patent US10960054B2, “Fracture targeted bone regeneration through parathyroid hormone receptor stimulation” (Purdue Research Foundation, priority 2016, dated 2021)
